# pIC50: −log10 of the molar value.
# Target: human ACC2 (Homo sapiens (Human), UniProt O00763)
# Assay: ACC2 assay: spectrophotometric 384 well assay (coupled lactate dehydrogenase/pyruvate kinase)
# Format: biochemical
# Details: hACC2 construct lacking the 128 N-terminal amino acids, 25° C., 340 nm
# Method: Spectrophotometric 384 Well Assay
# Malonyl CoA formation by acetyl CoA carboxylases is stoichiometrically linked to the consumption of ATP. ACC2 activity is measured in a […] kinetic method measuring ADP generated during the ACC reaction using a coupled lactate dehydrogenase/pyruvate kinase reaction.
# For biological testing, a human ACC2 construct which lacks the 128 amino acids at the N-terminus for increased solubility (nt 385-6966 in Genbank entry AJ575592) is cloned. The protein is then expressed in insect cells using a baculoviral expression system. Protein purification is performed by anion exchange.
# All compounds are dissolved in dimethyl sulfoxide (DMSO) to a concentration of 10 mM.
# Assay reactions are then carried out in 384-well plates, with hACC2 in an appropriate dilution and at final assay concentrations (f.c.) of 100 mM Tris (pH 7.5), 10 mM trisodium citrate, 25 mM KHCO3, 10 mM MgCl2, 0.5 mg/ml BSA, 3.75 mM reduced L-glutathione, 15 U/ml lactate dehydrogenase, 0.5 mM phosphoenolpyruvate, 15 U/ml pyruvate kinase, compounds at different concentrations at final DMSO concentrations of 1%.
# The enzymatic reaction is then started by addition of a mixture of NADH, acetyl Coenzyme A (both […].) and ATP (500 uM f.c.). The decrease of the optical density (slope S) is then determined at 25° C. at a wavelength of 340 nm over 15 minutes in a spectrophotometric reader.
# Each assay microtiter plate contains wells with vehicle instead of compound as controls for the non-inhibited enzyme (100% CTL; ‘HIGH’) and wells without acetyl-CoA as controls for non-specific NADH degradation (0% CTL; ‘LOW’).
# The slope S is used for calculation of % CTL=(S(compound)−S(‘LOW’))/(S(‘HIGH’)−S(‘LOW’))*100. Compounds will give values between 100% CTL (no inhibition) and 0% CTL (complete inhibition).
# For IC50 value determination, the sample slope in the presence of the test compound after subtraction of the low controls (S(compound)−S(‘LOW’)) are used.
# An IC50 value is derived from the compound slopes at different dosages after subtraction of the low controls (S(compound)-S(‘LOW’)) by non-linear regression curve fitting (equation y=(A+((B−A)/(1+((C/x)^D))))).
# Sequence of human ACC2 (O00763 129-2458): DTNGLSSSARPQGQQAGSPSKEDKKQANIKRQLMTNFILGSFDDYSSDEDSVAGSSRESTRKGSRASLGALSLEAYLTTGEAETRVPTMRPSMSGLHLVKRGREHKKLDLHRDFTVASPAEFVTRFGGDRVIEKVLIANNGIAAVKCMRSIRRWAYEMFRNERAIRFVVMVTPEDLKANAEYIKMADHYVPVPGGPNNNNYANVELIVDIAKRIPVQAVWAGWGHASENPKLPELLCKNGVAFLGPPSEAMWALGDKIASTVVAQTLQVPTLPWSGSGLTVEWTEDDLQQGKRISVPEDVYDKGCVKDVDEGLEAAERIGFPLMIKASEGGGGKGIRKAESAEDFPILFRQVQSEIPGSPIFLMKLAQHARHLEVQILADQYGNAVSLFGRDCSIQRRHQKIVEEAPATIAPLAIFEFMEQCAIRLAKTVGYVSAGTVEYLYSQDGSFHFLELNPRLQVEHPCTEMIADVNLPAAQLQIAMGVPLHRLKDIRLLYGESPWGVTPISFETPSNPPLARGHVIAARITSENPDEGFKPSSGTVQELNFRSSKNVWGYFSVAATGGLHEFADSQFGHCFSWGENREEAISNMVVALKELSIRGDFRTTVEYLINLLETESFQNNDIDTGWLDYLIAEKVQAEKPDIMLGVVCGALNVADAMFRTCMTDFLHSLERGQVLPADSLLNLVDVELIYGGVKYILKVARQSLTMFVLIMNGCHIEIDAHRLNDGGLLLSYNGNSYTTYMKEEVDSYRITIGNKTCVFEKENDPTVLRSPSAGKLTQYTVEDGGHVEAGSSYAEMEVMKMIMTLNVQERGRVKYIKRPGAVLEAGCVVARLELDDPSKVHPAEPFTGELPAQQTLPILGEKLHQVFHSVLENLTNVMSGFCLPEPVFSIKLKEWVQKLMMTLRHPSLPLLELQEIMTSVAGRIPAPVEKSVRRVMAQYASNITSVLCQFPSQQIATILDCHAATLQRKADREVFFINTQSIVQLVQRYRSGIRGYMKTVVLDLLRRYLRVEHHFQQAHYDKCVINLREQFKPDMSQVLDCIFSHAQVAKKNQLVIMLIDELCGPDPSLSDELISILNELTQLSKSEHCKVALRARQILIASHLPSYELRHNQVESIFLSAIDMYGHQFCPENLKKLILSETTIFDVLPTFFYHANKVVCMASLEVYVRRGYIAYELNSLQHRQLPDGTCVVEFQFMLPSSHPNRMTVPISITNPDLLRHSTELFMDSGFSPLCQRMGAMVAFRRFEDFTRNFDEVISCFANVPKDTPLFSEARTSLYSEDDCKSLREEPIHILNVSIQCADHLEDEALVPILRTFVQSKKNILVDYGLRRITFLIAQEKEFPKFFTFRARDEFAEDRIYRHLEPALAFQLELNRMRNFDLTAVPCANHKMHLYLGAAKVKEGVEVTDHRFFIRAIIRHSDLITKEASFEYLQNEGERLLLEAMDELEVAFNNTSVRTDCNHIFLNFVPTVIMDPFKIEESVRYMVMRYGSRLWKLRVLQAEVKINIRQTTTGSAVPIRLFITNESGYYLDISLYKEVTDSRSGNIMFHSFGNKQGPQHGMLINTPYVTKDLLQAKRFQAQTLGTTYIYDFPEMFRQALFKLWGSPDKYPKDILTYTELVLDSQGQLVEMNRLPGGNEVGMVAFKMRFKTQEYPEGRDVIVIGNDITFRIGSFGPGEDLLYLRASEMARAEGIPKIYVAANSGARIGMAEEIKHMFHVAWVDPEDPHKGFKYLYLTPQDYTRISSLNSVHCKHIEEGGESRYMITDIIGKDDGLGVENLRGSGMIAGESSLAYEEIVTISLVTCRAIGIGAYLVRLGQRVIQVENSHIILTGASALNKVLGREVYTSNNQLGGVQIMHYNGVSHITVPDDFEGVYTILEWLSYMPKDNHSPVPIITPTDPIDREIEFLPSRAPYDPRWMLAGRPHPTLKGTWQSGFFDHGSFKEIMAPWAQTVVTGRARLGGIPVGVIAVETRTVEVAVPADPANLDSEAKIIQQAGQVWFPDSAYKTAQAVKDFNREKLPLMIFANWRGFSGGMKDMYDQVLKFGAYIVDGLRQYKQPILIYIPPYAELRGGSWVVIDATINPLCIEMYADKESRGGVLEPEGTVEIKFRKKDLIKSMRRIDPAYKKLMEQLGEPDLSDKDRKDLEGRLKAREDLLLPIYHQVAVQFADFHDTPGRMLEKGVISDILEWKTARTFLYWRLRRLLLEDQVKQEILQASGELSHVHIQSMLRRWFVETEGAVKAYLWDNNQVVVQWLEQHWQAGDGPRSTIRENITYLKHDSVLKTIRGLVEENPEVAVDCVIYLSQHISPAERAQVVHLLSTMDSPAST
row,SMILES,pIC50
1,CC(=O)NC(C)c1ccc(CN2CCc3c(Cl)cccc3C2)cc1 (stereo not shown) [Example 1.004],6.69
2,C[C@H](NC(=O)C1CC1)c1ccc(CN2CCc3cc(OCC4CC(F)(F)C4)ccc3C2)cc1 [Example 2.015],7.42
3,C[C@H](NC(=O)c1ccns1)c1ccc(CN2CCc3cc(OCC4CC4(F)F)ccc3C2)cc1 (stereo partly shown) [Example 3.008],7.17
4,COc1c(OCC2CC2)ccc2c1CCN(Cc1ccc(C(C)NC(C)=O)cc1)C2 (stereo not shown) [Example 1.023],6.88
5,C[C@H](NC(=O)N(C)C)c1ccc(CN2Cc3ccc(OCC4CC4(F)F)cc3C(O)C2)cc1 (stereo partly shown) [Example 6.002],6.76
6,CCC(=O)Nc1nc(C)c(C(=O)N[C@@H](C)c2ccc(CN3CCc4cc(OCC5CC5)ccc4C3)cc2)s1 [Example 2.033],7.41
7,COc1cccc2c1CCN(Cc1ccc([C@H](C)NC(=O)c3cn[nH]c3)cc1)C2 [Example 2.004],6.74
8,CC(=O)N[C@@H](C)c1ccc(CN2Cc3ccc(OCC4CC4(F)F)cc3C(F)C2)cc1 (stereo partly shown) [Example 1.092],7.80
9,CC(=O)N[C@@H](C)c1ccc(CN2CCc3cc(OCC4CC4)ccc3C2)cc1 [Example 1.088],7.92
10,CC(=O)NC(C)c1ccc(CN2CCc3cc(Br)ccc3C2)cc1 (stereo not shown) [Example 1.003],6.58
11,CCC(=O)N[C@@H](C)c1ccc(CN2CCc3c(Br)cccc3C2)cc1 [Example 2.011],6.71
12,COC(=O)c1ccc2c(c1)CCN(Cc1ccc(C(C)NC(C)=O)cc1)C2 (stereo not shown) [Example 1.002],6.28
13,CC(O)C(=O)N[C@@H](C)c1ccc(CN2CCc3cc(OCC4CC4)ccc3C2)cc1 (stereo partly shown) [Example 2.021],6.77
14,CC(=O)NC(C)c1ccc(CN2CCc3cc(OCCCF)ccc3C2)cc1 (stereo not shown) [Example 1.013],6.84
15,COc1c(OCCC(F)(F)F)ccc2c1CCN(Cc1ccc([C@H](C)NC(C)=O)cc1)C2 [Example 1.066],6.95
16,C[C@H](NC(=O)CC(=O)N(C)C)c1ccc(CN2CCc3cc(OC[C@@H]4CC4(F)F)ccc3C2)cc1 [Example 2.031],6.35
17,CCC(=O)N[C@@H](C)c1ccc(CN2Cc3ccc(OCC4CC4)cc3C(O)C2)cc1 (stereo partly shown) [Example 3.039],6.87
18,C[C@H](NC(=O)C(F)(F)F)c1ccc(CN2CCc3cc(OCC4CC4(F)F)ccc3C2)cc1 (stereo partly shown) [Example 4.002],7.28
19,C[C@H](NC(=O)Cc1cnccn1)c1ccc(CN2Cc3ccc(OCC4CC4)cc3C(F)C2)cc1 (stereo partly shown) [Example 3.037],7.22
20,COc1c(OCC(C)C)ccc2c1CCN(Cc1ccc([C@H](C)NC(C)=O)cc1)C2 [Example 1.068],7.15

row,SMILES,pIC50
1,CC(C#N)C(=O)N[C@@H](C)c1ccc(CN2CCc3cc(OCC4CC4(F)F)ccc3C2)cc1 (stereo partly shown) [Example 3.003],7.04
2,C[C@H](NC(=O)c1cncs1)c1ccc(CN2Cc3ccc(OCC4CC4)cc3C(O)C2)cc1 (stereo partly shown) [Example 3.047],6.51
3,C[C@H](NC(=O)C1CC1)c1ccc(CN2CCc3cc(OCC4CCC4)ccc3C2)cc1 [Example 2.017],7.42
4,C[C@H](NC(=O)C1(C#N)CC1)c1ccc(CN2CCc3cc(OCC4CC4(F)F)ccc3C2)cc1 (stereo partly shown) [Example 3.013],7.40
5,CC(C)COc1ccc2c(c1)CCN(Cc1ccc([C@H](C)NC(=O)C3CC3)cc1)C2 [Example 2.019],7.24
6,CC(=O)Nc1nc(C)c(C(=O)N[C@@H](C)c2ccc(CN3Cc4ccc(OCC5CC5)cc4C(F)C3)cc2)o1 (stereo partly shown) [Example 3.036],6.29
7,C[C@H](NC(=O)[C@@H]1CCC(=O)N1)c1ccc(CN2Cc3ccc(OCC4CC4)cc3C(F)C2)cc1 (stereo partly shown) [Example 3.052],6.82
8,CC(=O)Nc1nc(C)c(C(=O)N[C@@H](C)c2ccc(CN3Cc4ccc(OCC5CC5)cc4C(F)C3)cc2)s1 (stereo partly shown) [Example 3.046],7.25
9,C[C@H](NC(=O)c1cncs1)c1ccc(CN2CCc3c(Br)cccc3C2)cc1 [Example 2.010],6.75
10,C[C@H](NC(=O)C1CCC(=O)N1)c1ccc(CN2Cc3ccc(OCC4CC4)cc3C(F)C2)cc1 (stereo partly shown) [Example 3.035],6.84
11,C[C@H](NC(=O)c1cncs1)c1ccc(CN2CCc3c(cccc3C(F)(F)F)C2)cc1 [Example 2.006],7.07
12,C[C@H](NC(=O)C1CCC(=O)N1)c1ccc(CN2CCc3cc(OC[C@@H]4CC4(F)F)ccc3C2)cc1 (stereo partly shown) [Example 2.029],6.48
13,CCOc1ccc2c(c1Cl)CCN(Cc1ccc(C(C)NC(C)=O)cc1)C2 (stereo not shown) [Example 1.032],6.58
14,CC(=O)NC(C)c1ccc(CN2CCc3cc(OC(F)(F)F)ccc3C2)cc1 (stereo not shown) [Example 1.007],6.54
15,C[C@H](NC(=O)[C@@H](C)O)c1ccc(CN2Cc3ccc(OCC4CC4)cc3C(F)C2)cc1 (stereo partly shown) [Example 3.061],7.05
16,COc1c(OCCC(F)(F)F)ccc2c1CCN(Cc1ccc([C@H](C)NC(=O)C3CC3)cc1)C2 [Example 1.054],6.57
17,C[C@H](NC(=O)C1CC1)c1ccc(CN2CCc3cc(OCCC(F)(F)F)ccc3C2)cc1 [Example 1.045],7.08
18,C[C@H](NC(=O)C1(C(F)(F)F)CC1)c1ccc(CN2CCc3cc(OCC4CC4(F)F)ccc3C2)cc1 (stereo partly shown) [Example 3.005],7.23
19,CC(=O)Nc1nc(C)c(C(=O)N[C@@H](C)c2ccc(CN3Cc4ccc(OCC5CC5(F)F)cc4C(F)C3)cc2)s1 (stereo partly shown) [Example 3.032],7.24
20,C[C@H](NC(=O)c1ccno1)c1ccc(CN2CCc3cc(OCC4CC4(F)F)ccc3C2)cc1 (stereo partly shown) [Example 3.014],6.99

# More lines, now with the values ahead:
row,pIC50,SMILES
1,7.62,C[C@H](NC(=O)C1CC1)c1ccc(CN2CCc3cc(OC[C@H]4CC4(F)F)ccc3C2)cc1 [Example 1.052]
2,6.63,CC(=O)N[C@@H](C)c1ccc(CN2CCc3cc(Cl)ccc3C2)cc1 [Example 1.081]
3,7.54,C[C@H](NC(=O)C1CC1)c1ccc(CN2Cc3ccc(OCC4CC4(F)F)cc3C(F)C2)cc1 (stereo partly shown) [Example 1.060]
4,6.72,CCC(=O)Nc1nc(C)c(C(=O)N[C@@H](C)c2ccc(CN3Cc4ccc(OCC5CC5)cc4C(O)C3)cc2)s1 (stereo partly shown) [Example 3.040]
5,6.68,C[C@H](NC(=O)c1cnn(C)c1N)c1ccc(CN2CCc3cc(OCC4CC4(F)F)ccc3C2)cc1 (stereo partly shown) [Example 3.018]
6,6.84,COc1c(OC2CCC2)ccc2c1CCN(Cc1ccc([C@H](C)NC(C)=O)cc1)C2 [Example 1.070]
7,7.17,CC(=O)N[C@@H](C)c1ccc(CN2CCc3c(ccc(Cl)c3Cl)C2)cc1 [Example 1.078]
8,6.09,C[C@H](NC(=O)CC#N)c1ccc(CN2Cc3ccc(OCC4CC4(F)F)cc3C(O)C2)cc1 (stereo partly shown) [Example 2.037]
9,7.24,C[C@H](NC(=O)C1CC1)c1ccc(CN2Cc3ccc(OCC4CC4)cc3C(F)C2)cc1 (stereo partly shown) [Example 1.059]
10,7.47,CC(=O)Nc1nc(C)c(C(=O)N[C@@H](C)c2ccc(CN3CCc4cc(OCC5CC5)ccc4C3)cc2)s1 [Example 2.032]
11,7.35,CC(=O)N[C@@H](C)c1ccc(CN2CCc3cc(OCCC(F)F)ccc3C2)cc1 [Example 1.063]
12,7.35,C[C@H](NC(=O)CC#N)c1ccc(CN2Cc3ccc(OCC4CC4(F)F)cc3C(F)C2)cc1 (stereo partly shown) [Example 3.029]
13,6.85,COc1c(OCC2CC2(F)F)ccc2c1CCN(Cc1ccc([C@H](C)NC(=O)C3CC3)cc1)C2 (stereo partly shown) [Example 1.053]
14,6.31,C[C@H](NC(=O)C1CCC1)c1ccc(CN2Cc3ccc(OCC4CC4)cc3C(O)C2)cc1 (stereo partly shown) [Example 3.041]
15,6.51,C[C@H](NC(=O)[C@@H]1CC[C@H](NC(=O)OC(C)(C)C)C1)c1ccc(CN2Cc3ccc(OCC4CC4)cc3C(F)C2)cc1 (stereo partly shown) [Example 3.050]
16,7.30,CC(=O)N[C@@H](C)c1ccc(CN2CC(=O)c3cc(OCC4CC4(F)F)ccc3C2)cc1 (stereo partly shown) [Example 7.009]
17,7.19,CC(=O)N[C@@H](C)c1ccc(CN2CC(=O)c3cc(OCC4CC4)ccc3C2)cc1 [Example 1.090]
18,6.63,CCOc1ccc2c(c1OC)CCN(Cc1ccc([C@H](C)NC(C)=O)cc1)C2 [Example 1.067]
19,7.37,CC(=O)NC(C)c1ccc(CN2CCc3c(ccc(OCC4CC4)c3Cl)C2)cc1 (stereo not shown) [Example 1.026]
20,7.62,C[C@H](NC(=O)C1(C)CC1)c1ccc(CN2CCc3cc(OCC4CC4(F)F)ccc3C2)cc1 (stereo partly shown) [Example 3.015]
21,7.21,CC(=O)NC(C)c1ccc(CN2CCc3c(ccc(OCCC4CC4)c3Cl)C2)cc1 (stereo not shown) [Example 1.035]
22,6.98,CC(=O)Nc1nc(C)c(C(=O)N[C@@H](C)c2ccc(CN3CCc4c(cccc4C(F)(F)F)C3)cc2)s1 [Example 2.005]
23,6.26,C[C@H](NC(=O)C1CC1)c1ccc(CN2CC(=O)c3cc(OCC4CC4(F)F)ccc3C2)cc1 (stereo partly shown) [Example 7.006]
24,7.77,C[C@H](NC(=O)N(C)C)c1ccc(CN2Cc3ccc(OCC4CC4(F)F)cc3C(F)C2)cc1 (stereo partly shown) [Example 5.004]

# From patent US9340510B2, “Tetrahydroisoquinoline derivatives, pharmaceutical compositions and uses thereof” (Boehringer Ingelheim International GmbH, priority 2014, dated 2016)
